Test results from patent US8697911B2, “Rho kinase inhibitors” (Boehringer Ingelheim International GmbH, priority 2010, dated 2014).
Where two headings read alike, the source gives them in different places.

Tests used:
[1] = test system: neointimal formation in rats; conditions: cited from earlier work
[2] = test system: Dahl salt-sensitive rats; conditions: rat, in vivo; cited from earlier work
[3] = test system: spontaneously hypertensive rat, renal hypertensive rat and deoxycortisone acetate salt hypertensive rat models; conditions: cited from earlier work
[4] = molecular target: T1, ROCKII (1-543) (Homo sapiens (Human), UniProt O75116); experiment: IMAP Assay (Assay 2); type: biochemical; conditions: IMAP fluorescence polarization; 100 μM ATP, 1 nM kinase
Experimental: This assay is performed using FAM S6 substrate peptide (Catalogue #R7184) and IMAP FP Screening Express Kit detection reagents from Molecular Devices (Sunnyvale, Calif.) in IMAP kinase reaction buffer (Tris-HCl, pH 7.2, 10 mM MgCl2, 0.05% NaN3, 0.1% phosphate-free BSA) containing 1 mM DTT. Test compounds dissolved in neat DMSO at 0.3 mg/mL are serially diluted 1 to 3 for concentration response in 100% DMSO. The DMSO serial dilutions are further diluted 33.33-fold in kinase reaction buffer, and 10 μL of this buffer dilution is transferred to Corning black 96-well half area NBS plates for a final top concentration of 3 μg/mL in 1% DMSO. 10 μL aliquot of 3 nM ROCKII (1-543) diluted in kinase reaction buffer is added to each assay well for a final concentration of 1 nM kinase. 10 μL of a mixture of 600 nM FAM S6 peptide and 300 μM ATP diluted in kinase reaction buffer is added to each well for a final concentration of 200 nM peptide and 100 μM ATP. The kinase reaction mixture is incubated for 60 minutes at room temperature. Positive controls are reaction mixtures containing no test compound and negative controls (blanks) are reaction mixtures containing no kinase. The kinase reaction is stopped by addition of 60 μL IMAP progressive binding reagent (Catalog #R7284) diluted 400-fold in 1× Binding buffer A. After 30 min of incubation at room temperature, the plates are read for fluorescence polarization on Analyst Plate Reader using Ex 485 nm, Em 530 nm, and FL 505 dichroic minor. The mP signals are converted to percent of control (POC) values using the formula: POC=100*(Signal−BCTRL)÷(PCTRL−BCTRL)
Where Signal is the test well signal, BCTRL is the average of background (negative control) well signals on the plate and PCTRL is the average of positive control well signals on the plate. For the concentration-responsive compounds, POC as a function of test compound concentration is fitted to a 4-parameter logistic equation of the form: Y=A+(B−A)/[1+(x/C)D]
Where A, B, C, and D are fitted parameters (parameter B is fixed at zero POC), and x and y are the independent and dependent variables, respectively. The IC50 is determined as the inflection point parameter, C.
Target sequence in this assay (O75116 1-543, species assumed): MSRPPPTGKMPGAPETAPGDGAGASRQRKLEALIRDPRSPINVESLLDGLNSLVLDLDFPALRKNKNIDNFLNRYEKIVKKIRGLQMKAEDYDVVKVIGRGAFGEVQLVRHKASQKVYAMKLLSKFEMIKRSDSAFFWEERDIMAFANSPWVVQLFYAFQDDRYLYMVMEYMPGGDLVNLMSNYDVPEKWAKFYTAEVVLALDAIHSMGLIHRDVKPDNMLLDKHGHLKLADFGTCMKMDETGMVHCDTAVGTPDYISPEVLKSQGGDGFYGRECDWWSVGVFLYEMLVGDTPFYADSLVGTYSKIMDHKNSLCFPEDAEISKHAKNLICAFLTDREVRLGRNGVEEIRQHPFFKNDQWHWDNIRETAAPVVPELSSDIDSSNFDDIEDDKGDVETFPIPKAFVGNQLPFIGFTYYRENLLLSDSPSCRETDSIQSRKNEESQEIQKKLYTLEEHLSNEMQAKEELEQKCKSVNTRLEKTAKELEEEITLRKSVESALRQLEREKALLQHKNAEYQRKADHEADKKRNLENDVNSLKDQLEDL

[5] = molecular target: T1, ROCKII (1-543); experiment: Luciferin-Luciferase Assay (Assay 1); type: biochemical; conditions: luciferin-luciferase residual ATP; 750 nM ATP, 7.5 nM kinase
Experimental: 1. Luciferin-Luciferase Assay
The activity of ROCKII (1-543) kinase is measured utilizing Cambrex PKLight ATP Detection Reagent, a homogeneous assay technology using luciferin-luciferase to quantify residual ATP. The assay is performed in 384-well low-volume, white, non-binding surface microtiter plates (Corning). The assay buffer is 25 mM HEPES, pH 7.5, 10 mM MgCl2, 50 mM KCl, 0.2% BSA, 0.01% CHAPS, 100 μM Na3VO4 and 0.5 mM DTT. Test compounds, dissolved in neat DMSO at 500 μg/mL, are serially diluted for dose response for a final starting concentration of 3 μg/mL in 1% DMSO of assay buffer. ROCKII (1-543) (62,408 Da) is diluted in assay buffer to a final concentration of 7.5 nM in a total volume of 15 μL. Positive controls are reaction mixtures containing no test compound; negative controls (blanks) are reaction mixtures containing no kinase. After 15 minutes of pre-incubation of the test compounds with the kinase, a mixture of ATP and peptide substrate ([…]) in assay buffer is added to each well for a final concentration of 750 nM ATP and 500 nM peptide, respectively. After 90 minutes of incubation of the kinase reaction at 28° C. temperature, 10 μL of PKLight ATP Detection Reagent (warmed to room temperature previously) is added to each well. The assay plate is incubated at room temperature for additional 15 minutes and then read on an Analyst in luminescence mode. Dose-response experiments for each of the test compounds are conducted in quadruplet. IC50 values of test compounds represent 50% response of the positive control from the dose-response curve.
Target sequence in this assay (O75116 1-543): as the sequence (O75116 1-543, species assumed) above

[6] = test system: IL-1 beta-induced coronary stenosis; conditions: long term treatment; cited from earlier work
[7] = test system: rat stroke model; conditions: in vivo; cited from earlier work

Question: With `C[C@@H](N)[C@H]1CC[C@H](C(=O)Nc2ccncc2)CC1` [Y-27632] as the molecule, how does the neointimal formation [1] read?
Answer: inhibited neointimal formation

Question: And the “ventricular hypertrophy and function” value [2]?
Answer: improve ventricular hypertrophy and function

Question: And the “effect on blood pressure” value ([3]; control rats)?
Answer: only a minor effect on blood pressure

Question: What about the “effect on blood pressure” value ([3]; three rat models of hypertension) of the same molecule?
Answer: significantly decrease blood pressure

Question: Which IC50 [4] does the source give for `CN1CCc2ccc(NC(=O)c3cccc(CNC(=O)c4cc5cc(C(N)=O)ccc5[nH]4)c3)cc2C1` [compound 86] here?
Answer: 0.85 nM

Question: What about the IC50 [5] of the same molecule?
Answer: 1.7 nM

Question: With `CN1CCc2nc(NC(=O)c3cccc(CNC(=O)N4CCc5c(C#N)cccc54)c3)sc2C1` [compound 90] as the molecule, how does the IC50 [4] read?
Answer: 17 nM

Question: And the IC50 [5]?
Answer: 3.1 nM

Question: With `CN1CCc2ccc(NC(=O)c3cccc(CNC(=O)c4cc5ccc(C#N)cc5n4C)c3)cc2C1` [compound 92] as the molecule, how does the IC50 [4] read?
Answer: 17 nM

Question: And the IC50 [5]?
Answer: 4.1 nM

Question: For `CN1CCc2ccc(NC(=O)c3cccc(CNC(=O)c4cc5cc(C#N)ccc5n4C)c3)cc2C1` [compound 94], which IC50 [4] is on record?
Answer: 46 nM

Question: What about the IC50 [5] of the same molecule?
Answer: 8.1 nM

Question: Which results are given for `Cc1nc(-c2ccncc2)sc1C(=O)NCc1cccc(C(=O)Nc2ccc3c(c2)CN(C)CC3)c1` [compound 95]?
Answer: IC50 [4]: 1.25 nM; IC50 [5]: 1.4 nM

Question: What does the source list for `CN1CCc2ccc(NC(=O)c3cccc(CNC(=O)c4cc5cc(C(N)=O)ccc5n4C)c3)cc2C1` [compound 96]?
Answer: IC50 [4]: 12.2 nM; IC50 [5]: 3.8 nM

Question: Which results are given for `CN(C)[C@H]1CCc2nc(NC(=O)c3cccc(CNC(=O)c4cn5cc(C#N)ccc5n4)c3)sc2C1` [compound 100]?
Answer: IC50 [4]: 2.6 nM; IC50 [5]: 1.7 nM

Question: With `CN1CCc2ccc(NC(=O)c3cccc(CNC(=O)c4cc(-c5ccncc5)[nH]n4)c3)cc2C1` [compound 119] as the molecule, how does the IC50 [4] read?
Answer: 0.22 nM

Question: What about the IC50 [5] of the same molecule?
Answer: 1.3 nM

Question: Which IC50 [4] does the source give for `CN1CCc2ccc(NC(=O)c3cccc(CNC(=O)c4nnn(-c5nonc5N)c4-c4ccccc4)c3)cc2C1` [compound 123] here?
Answer: 3.9 nM

Question: And the IC50 [5]?
Answer: 1.7 nM

Question: Which IC50 [4] does the source give for `CN1CCc2nc(NC(=O)c3cccc(CNC(=O)c4cc5cc(C#N)ccc5n4C)c3)sc2C1` [compound 124] here?
Answer: 11 nM

Question: What about the IC50 [5] of the same molecule?
Answer: 3.8 nM

Question: What does the source list for `Cc1c(C(=O)NCc2cccc(C(=O)Nc3ccc4c(c3)CN(C)CC4)c2)nnn1-c1nonc1N` [compound 125]?
Answer: IC50 [4]: 26 nM; IC50 [5]: 5.9 nM

Question: Which results are given for `CN1CCc2ccc(NC(=O)c3cccc(CNC(=O)c4ccc(-c5ccncc5)cc4)c3)cc2C1` [compound 129]?
Answer: IC50 [4]: 0.195 nM; IC50 [5]: 1.3 nM

Question: With `Cc1cc(-c2ccc(C(=O)NCc3cccc(C(=O)Nc4nc5c(s4)CN(C)CC5)c3)cc2)ccn1` [compound 144, 3-[4-(2-picoline-4-yl)-benzamidomethyl-N-(5-methyl-4,5,6,7-tetrahydro-thiazolo[5,4-c]pyridin-2-yl)-benzamide]] as the molecule, how does the IC50 [4] read?
Answer: 4.35 nM

Question: And the IC50 [5]?
Answer: 2.6 nM

Question: For `Cc1c(C(=O)NCc2cccc(C(=O)Nc3nc4c(s3)C[C@@H](N3CCOCC3)CC4)c2)nnn1-c1nonc1N` [compound 152], which IC50 [4] is on record?
Answer: 0.57 nM

Question: What about the IC50 [5] of the same molecule?
Answer: 1.9 nM

Question: Which IC50 [4] does the source give for `Cc1cc(-c2ncc(C(=O)NCc3cccc(C(=O)Nc4nc5c(s4)CN(C)CC5)c3)s2)ccn1` [compound 154] here?
Answer: 39 nM

Question: What about the IC50 [5] of the same molecule?
Answer: 9.5 nM

Question: Which results are given for `CN1CCc2ccc(NC(=O)c3cccc(CNC(=O)c4ccc(-c5cc[nH]n5)cc4)c3)cc2C1` [compound 155]?
Answer: IC50 [4]: 47 nM; IC50 [5]: 8.1 nM

Question: Which IC50 [4] does the source give for `CN1CCc2ccc(NC(=O)c3cccc(CNC(=O)c4ccc(-n5cncn5)cc4)c3)cc2C1` [compound 178, 4-[1,2,4]triazol-1-yl-benzoic acid 3-(2-methyl-1,2,3,4-tetrahydro-isoquinolin-7-ylcarbamoyl)-benzylamide] here?
Answer: 48 nM

Question: What about the IC50 [5] of the same molecule?
Answer: 5.7 nM

Question: What does the source list for `CN1CCc2ccc(NC(=O)c3cccc(CNC(=O)c4ccc(-c5ccn[nH]5)cc4)c3)cc2C1` [compound 179]?
Answer: IC50 [4]: 34 nM; IC50 [5]: 6.6 nM

Question: With `CN1CCc2ccc(NC(=O)c3cccc(CNC(=O)c4cccc(-c5cnco5)c4)c3)cc2C1` [compound 190] as the molecule, how does the IC50 [4] read?
Answer: 56 nM

Question: What about the IC50 [5] of the same molecule?
Answer: 6.5 nM

Question: Which IC50 [4] does the source give for `CN1CCc2ccc(NC(=O)c3cccc(CNC(=O)c4cnc(-c5cccnc5)s4)c3)cc2C1` [compound 194] here?
Answer: 30 nM

Question: What about the IC50 [5] of the same molecule?
Answer: 4.8 nM

Question: For `Cc1nccn1-c1ccc(C(=O)NCc2cccc(C(=O)Nc3ccc4c(c3)CN(C)CC4)c2)cc1` [compound 200], which IC50 [4] is on record?
Answer: 1.6 nM

Question: What about the IC50 [5] of the same molecule?
Answer: 3 nM

Question: Which coronary constrictive remodeling [6] does the source give for `O=S(=O)(c1cccc2cnccc12)N1CCCNCC1` [fasudil] here?
Answer: promote a regression of coronary constrictive remodeling

Question: And the coronary stenosis [6]?
Answer: progressively reduce coronary stenosis

Question: What about the “infarct size and neurologic deficit” value [7] of the same molecule?
Answer: reduce both the infarct size and neurologic deficit
